ChEMBL document CHEMBL5380858 (J Med Chem, 2023)

How the values were obtained:
[1] = Selectivity index, ratio of CC50 for cytotoxicity against human calu-3 cells to EC50 for antiviral activity against SARS CoV-2 USA-WA1/2020 infected in human Calu-3 cells; format: toxicity, cell-based; conditions: read-out: Ratio CC50/EC50
[2] = Selectivity index, ratio of CC50 for cytotoxicity against human Huh7.5 cells to EC50 for antiviral activity against SARS CoV-2 USA-WA1/2020 infected in human Huh7.5 cells; format: toxicity, cell-based; conditions: read-out: Ratio CC50/EC50
[3] = Selectivity index, ratio of CC50 for african green monkey Vero/TMPRSS2 cells to EC50 for antiviral activity against SARS CoV-2 USA-WA1/2020 infected in Vero/TMPRSS2 cells; format: toxicity, cell-based; conditions: read-out: Ratio CC50/EC50
[4] = Selectivity index, ratio of CC50 for cytotoxicity against human iPSC-lung cells to EC50 for antiviral activity against SARS CoV-2 USA-WA1/2020 infected in human iPSC-lung cells; format: toxicity, cell-based; conditions: read-out: Ratio CC50/EC50
SARS-CoV-2 [5] = test: Antiviral activity against SARS CoV-2 USA-WA1/2020 infected in human Calu-3 cells pretreated for 30 to 60 mins followed by viral infection and measured after 40 to 44 hrs by sytox green staining based analysis; format: functional, organism-based, Severe acute respiratory syndrome coronavirus 2
[6] = Cytotoxicity against human Calu-3 cells assessed as reduction in cell viability incubated for 40 to 44 hrs by celltiter-glo assay; format: toxicity, cell-based; conditions: time 40-44 hrs
SARS-CoV-2 [7] = test: Antiviral activity against SARS CoV-2 USA-WA1/2020 infected in human Huh7.5 cells pretreated for 30 to 60 mins followed by viral infection and measured after 48 hrs post infection by sytox green staining based immunofluorescence analysis; format: functional, organism-based; conditions: Severe acute respiratory syndrome coronavirus 2, USA-WA1/2020, Huh7.5; for EC90: time 2910-2940 min
[8] = Cytotoxicity against human Huh7.5 cells assessed as reduction in cell viability incubated for 48 hrs by celltiter glo assay; format: toxicity, cell-based, Huh-7.5
SARS-CoV-2 [9] = test: Antiviral activity against SARS CoV-2 USA-WA1/2020 infected in Vero/TMPRSS2 cells pretreated for 30 to 60 mins followed by viral infection and measured after 38 hrs post infection by sytox green staining based immunofluorescence analysis; format: functional, organism-based; conditions: Severe acute respiratory syndrome coronavirus 2, USA-WA1/2020, Vero/TMPRSS2; for EC90: time 2310-2340 min
[10] = Cytotoxicity against african green monkey Vero/TMPRSS2 cells assessed as reduction in cell viability incubated for 38 hrs by celltiter glo assay; format: toxicity, cell-based; conditions: chlorocebus aethiops
SARS-CoV-2 [11] = test: Antiviral activity against SARS CoV-2 USA-WA1/2020 infected in human iPSC-lung cells pretreated for 30 to 60 mins followed by viral infection and measured after 24 hrs post infection by sytox green staining based analysis; format: functional, organism-based; conditions: Severe acute respiratory syndrome coronavirus 2, USA-WA1/2020, iPSC-Lung cell; for EC90: time 1470-1500 min
[12] = Cytotoxicity against human iPSC-lung cells assessed as reduction in number of nuclei incubated for 24 hrs by celltiter glo assay; format: toxicity, cell-based, iPSC-Lung cell
SARS-CoV-2 [13] = test: Potency index, ratio of remdesivir EC50 to test compound EC50 for antiviral activity against SARS CoV-2 USA-WA1/2020 infected in human Calu-3 cells pretreated for 30 to 60 mins followed by viral infection and measured after 40 to 44 hrs by sytox green staining based analysis; format: functional, Severe acute respiratory syndrome coronavirus 2; conditions: time 2430-2700 min
SARS-CoV-2 [14] = test: Antiviral activity against SARS CoV-2 USA-WA1/2020 infected in human Calu-3 cells assessed as reduction in viral RNA pretreated for 30 mins followed by viral infection and measured after 48 hrs by qRT-PCR analysis; format: functional, organism-based; conditions: Severe acute respiratory syndrome coronavirus 2, USA-WA1/2020, Calu-3
[15] = Cytotoxicity against human Calu-3 cells assessed as reduction in cell viability incubated for 48.5 hrs by CellTiter-Glo assay; format: toxicity, cell-based
[16] = Severe acute respiratory syndrome coronavirus 2, USA-WA1/2020, Calu-3
[17] = Severe acute respiratory syndrome coronavirus 2, USA-WA1/2020, Calu-3, time 2430-2700 min

Row | Structure (SMILES) | selectivity ratio [1] | selectivity ratio [2] | selectivity ratio [3] | other results
1 | CCCCCCCCCCCCCCCCCCOC[C@H](COP(=O)(O)OC[C@H]1O[C@@](C#N)(c2ccc3c(N)ncnn23)[C@H](O)[C@@H]1O)OCc1ccc(OC)c(F)c1 | 656 | 1170 | > 561 | selectivity ratio [4]: > 119
2 | CCCCCCCCCCCCCCCCCCOC[C@H](COP(=O)(O)OC[C@H]1O[C@@](C#N)(c2ccc3c(N)ncnn23)[C@H](O)[C@@H]1O)OCc1ccc(C(F)(F)F)cc1 | 509 |  |  | 
3 | CCCCCCCCCCCCCCCCCCOC[C@H](COP(=O)(O)OC[C@H]1O[C@@](C#N)(c2ccc3c(N)ncnn23)[C@H](O)[C@@H]1O)OCc1ccc(C#N)cc1 | 1400 | 1970 |  | 
4 | CCCCCCCCCCCCCCCCOC[C@H](COP(=O)(O)OC[C@H]1O[C@@](C#N)(c2ccc3c(N)ncnn23)[C@H](O)[C@@H]1O)OCc1ccccc1 | 934 | > 763 | > 248 | 
5 | CCCCCCCCCCCCCCCCOC[C@H](COP(=O)(O)OC[C@H]1O[C@@](C#N)(c2ccc3c(N)ncnn23)[C@H](O)[C@@H]1O)OCc1ccc(OC)c(F)c1 | 1480 | 1180 | > 246 | selectivity ratio [4]: > 153
6 | CCCCCCCC/C=C\CCCCCCCCOC[C@H](COP(=O)(O)OC[C@H]1O[C@@](C#N)(c2ccc3c(N)ncnn23)[C@H](O)[C@@H]1O)OCc1ccc(OC)c(F)c1 | 839 | > 1850 | > 333 | EC50 (SARS-CoV-2 [5]; [16]): 0.07 µM; EC90 (SARS-CoV-2 [5]; [17]): 0.149 µM; CC50 [6]: 58.7 µM; EC50 (SARS-CoV-2 [7]): 0.054 µM; EC90 (SARS-CoV-2 [7]): 0.095 µM; CC50 at 48 h [8]: > 100 µM; EC50 (SARS-CoV-2 [9]): 0.3 µM; EC90 (SARS-CoV-2 [9]): 0.554 µM; CC50 at 38 h [10]: > 100 µM; EC50 (SARS-CoV-2 [11]): 0.082 µM; EC90 (SARS-CoV-2 [11]): 0.175 µM; CC50 at 24 h [12]: > 20 µM; selectivity ratio [4]: > 243; Ratio EC50 (SARS-CoV-2 [13]): 3.3
7 | CCCCCCCCCCCCCCCCCCOC[C@H](COP(=O)(O)OC[C@H]1O[C@@](C#N)(c2ccc3c(N)ncnn23)[C@H](O)[C@@H]1O)OCCC1CCCCC1 | 685 | 758 |  | 
8 | CCCCCCCCCCCCCCCCCCOC[C@H](COP(=O)(O)OC[C@H]1O[C@@](C#N)(c2ccc3c(N)ncnn23)[C@H](O)[C@@H]1O)OCc1ccccc1C#N | 909 | > 980 | > 337 | EC50 (SARS-CoV-2 [9]): 0.296 µM; CC50 at 38 h [10]: > 1010 µM
9 | CCCCCCCCCCCCCCCCCCOC[C@H](COP(=O)(O)OC[C@H]1O[C@@](C#N)(c2ccc3c(N)ncnn23)[C@H](O)[C@@H]1O)OCc1cccc(C#N)c1 | 1810 | 2070 |  | 
10 | CCCCCCCC/C=C\CCCCCCCCOC[C@H](COP(=O)(O)OC[C@H]1O[C@@](C#N)(c2ccc3c(N)ncnn23)[C@H](O)[C@@H]1O)OCc1ccccc1 | 410 | > 917 | > 341 | EC50 (SARS-CoV-2 [5]; [16]): 0.193 µM; EC90 (SARS-CoV-2 [5]; [17]): 0.324 µM; CC50 [6]: 79.2 µM; EC50 (SARS-CoV-2 [7]): 0.109 µM; EC90 (SARS-CoV-2 [7]): 0.224 µM; CC50 at 48 h [8]: > 100 µM; EC50 (SARS-CoV-2 [9]): 0.293 µM; EC90 (SARS-CoV-2 [9]): 0.57 µM; CC50 at 38 h [10]: > 100 µM; EC50 (SARS-CoV-2 [11]): 0.267 µM; EC90 (SARS-CoV-2 [11]): 0.555 µM; CC50 at 24 h [12]: > 20 µM; selectivity ratio [4]: > 74
11 | CCCCCCCCCCCCCCCCCCOC[C@H](COP(=O)(O)OC[C@H]1O[C@@](C#N)(c2ccc3c(N)ncnn23)[C@H](O)[C@@H]1O)OCc1cccc(C(F)(F)F)c1 | 418 |  |  | 
12 | CCCCCCCCCCCCCCCCCCOC[C@H](COP(=O)(O)OC[C@H]1O[C@@](C#N)(c2ccc3c(N)ncnn23)[C@H](O)[C@@H]1O)OCCCCCCCC | > 255 | > 177 | > 129 | EC50 (SARS-CoV-2 [5]; calu-3): 0.16 µM; EC90 (SARS-CoV-2 [5]; time 2430-2700 min): 0.625 µM
13 | CCCCCCCCCCCCCCOC[C@H](COP(=O)(O)OC[C@H]1O[C@@](C#N)(c2ccc3c(N)ncnn23)[C@H](O)[C@@H]1O)OCc1ccccc1 | > 469 | > 636 | > 110 | 
14 | CCCCCCCCCCCCCCCCCCOC[C@H](COP(=O)(O)OC[C@H]1O[C@@](C#N)(c2ccc3c(N)ncnn23)[C@H](O)[C@@H]1O)OCc1cccc(F)c1 | 422 | 392 | > 369 | 
15 | N#C[C@@]1(c2ccc3c(N)ncnn23)O[C@H](CO)[C@@H](O)[C@H]1O [GS-441524] | > 666 |  |  | EC50 (SARS-CoV-2 [14]): 0.15 µM; EC90 (SARS-CoV-2 [14]; time 48.5 hrs): 0.18 µM; CC50 at 48.5 h [15]: > 100 µM
